The nature of assay [1]: Expert taster evaluation, test in jus and fonds. The following applies: 40 ppb in beef jus. Here is the method:
(§1) Samples were prepared and evaluated by expert tasters. Tasters were asked to describe the samples focusing on authentic taste, mouthfeel, fullness, salivation, salty-ness, umami, sweetness, juiciness, richness, long lastingness and fattiness.

The nature of assay [2]: Expert taster evaluation, test in dressings. The following applies: 0.5 ppm in low fat salad dressing (13.6% fat). Here is the method: as §1
Low fat salad dressing (13.6% Fat)

Assay [3] is described as follows: Expert taster evaluation, test in cheese (spreadable cheese ERU). The following applies: 0.5 ppm in spreadable cheese ERU. The method, then: as §1
Assay [4] in a line: Expert taster evaluation, test in cheese sauce. The settings on record: 0.5 ppm in cheese sauce, 5% fat, 1.6% salt. The method, then:
as §1
Cheese sauce: 5% fat 1.6% salt

A short description of assay [5]: Expert taster evaluation, test in soups and bouillons. The settings on record: 0.7% salt, 0.5% fat. The method, then: as §1
Test in Soups and Bouillons
Standard Chicken bouillon base

The nature of assay [6]: Expert taster evaluation, test on Kikkoman soy sauce low salt. The settings on record: 0.5 ppm in Kikkoman soy sauce low salt; salt level in application 0.3-1.0%. The method, then:
as §1
Test on Kikkoman soy sauce low salt
(§2) Salt level pure product between 5-40%
(§3) Salt level in application 0.3-1.0%

Assay [7] is described as follows: Expert taster evaluation, test in fish sauce. The following applies: 0.5 ppm in fish sauce; salt level in application 0.3-1.0%. The method, then: as §1, §2, §3
Assay [8] is described as follows: Expert taster evaluation, test in mayonnaise. The following applies: 0.5 ppm in low fat mayonnaise (27% fat). The method, then:
as §1
Fat levels between 10-80%
Low fat Mayonnaise (27% Fat)

SMILES strings stand for the structures.

On to `CCCCCCCC/C=C\CCCCCCCC(=O)NC1(C(=O)O)CC1` [C18:1-ACCA, N-oleoyl 1-amino-cyclopropyl carboxylic acid], for which the “taste description by expert tasters” value in assay [1] is “more salty, fatty, total profile is enhanced”; in assay [2] it was “Increased mouthfeel body less acidic”; in assay [3] it was “Strong umami, lingering cheese bite”; in assay [4], “Strong umami, cheese bite, expanding”; in assay [5] (0.2 ppm in standard chicken bouillon base), “Saltier, Stronger and more umami”; in assay [5] (0.5 ppm in standard chicken bouillon base), “More body and fatty notes, salivating and good aftertaste”. Moreover, the “taste description by expert tasters” value in assay [6] is given as “Strong upfront saltiness lingering, very strong saltiness”; in assay [7] it was “Strong saltiness lingering, strong body mouthfeel”; in assay [8], “Nice balanced, full mouthfeel, increased eggyness”.

These data come from patent US10201175B2, “N-acylated 1-aminocycloalkyl carboxylic acids as food flavouring compounds” (Givaudan S.A., priority 2012, dated 2019).
